From patent US11999782B2, “Therapeutic agents for the treatment of diseases associated with undesired cell proliferation” (Fundació Privada Institutció Catalana de Recerca I Estudis …, priority 2009, dated 2024)

How the values were obtained:
human LIF promoter = test: LIF promoter luciferase reporter assay; assay type: cell-based; details: U373MG cells as printed; 100 pM TGFβ1, 20 hours
Description: FIG. 4. TGFβ induces the transcription of LIF through an activated Smad complex. (A) Diagrams of the indicator constructs of luciferase LIF. (B) A172 glioma cells were transfected with indicator constructs of luciferase LIF (−634/+32), (−276/+32), (−276/+32) mutSBE or (−73/+32). 16 hours after transfection, the cells were treated with 100 pM TGFβ1 for 20 hours and were analyzed for luciferase activity. (C) U373MG cells were treated with 100 pM TGFβ1 for 3 hours, and ChIP assays were performed with the indicated antibodies and the PCR primers indicated. (D, E) The levels of LIF were determined by means of qRT-PCR analysis in U373MG (D) or GEM neurospheres (E) treated with 100 pM TGFβ1 for 3 hours after silencing mediated by siRNA of the indicated members of the indicated Smad family. Western blotting was performed using antibodies specific for Smads or qRT-PCR of Smad4. The β-actin was determined as an internal normalization control.
Genomic DNA of U373MG was used to amplify the −634/+32 region of the human LIF promoter which was cloned into the pGL2-basic luciferase vector. The deletion constructs (−267/+32), and (−73/+32) were generated by means of digestion of the construct (−634/+32). Two point mutations were introduced in positions −183 bp and −184 bp in the construct (−267/+32) to interrupt the Smad binding element (SBE) and generate the construct (−267/+32) mutSBE. […]

[1] = system: LIF expression in mouse neuroprogenitors; test: LIF induction in mouse neuroprogenitors; assay type: cell-based; details: from mouse embryos or the subventricular area of adult mice; data not shown
LIF protein secretion = test: Secreted LIF protein by ELISA in GBM1 neurospheres; assay type: cell-based, human; details: 48 hours, 100 pM TGFβ1
Description: FIG. 3. TGFβ induces the expression of LIF in PCTC and GBM neurospheres. (A) PCTC cells of the 11 samples of the indicated GEM (GBM1-11) were treated with 100 pM TGFβ1 for 3 hours in medium without serum or left untreated, and the expression levels of LIF were determined by means of qRT-PCR. The g-actin was determined as an internal normalization control. (B) GBM neurosphere cells were treated as in A and the expression levels of LIF were determined by means of qRT-PCR as in A. (C) GBM neurospheres were incubated with 100 pM TGFβ1 and/or 2 μM TβRI inhibitor for 3 hours in medium without serum and the mRNA levels of LIF were determined by means of qRT-PCR as in A. (D) GBM1 neurospheres were incubated with 100 pM TGFβ1, TGFβ2 and TGFβ3 for 3 hours in medium without serum and the mRNA levels of LIF were determined by means of qRT-PCR as in A. (E) The levels of LIF protein secreted were determined by means of ELISA in GBM1 neurospheres after 48 hours of treatment with 100 pM TGFβ1.
For the quantitative determination of the levels of LIF protein secreted to the medium, the human LIF ELISA kit (R&D Systems) was used, following the manufacturer's specifications. […]
It was decided to investigate the molecular mechanisms responsible for the effect of TGFβ on GICs. […] A panel of PCTCs derived from 11 different human GBMs was treated with TGFβ for 3 hours and the levels of LIF mRNA were determined.

## TGFβ: TGFβ1 (R&D Systems), used at 100 pM according to the figure legends
Human LIF promoter
  transactivation of LIF promoter reporter constructs (−634/+32 and −276/+32): capable of transactivating
[1]
  induction of LIF in mouse neuroprogenitors: did not induce LIF
LIF protein secretion
  secretion of the LIF protein (ELISA, conditioned neurosphere medium): increase in the secretion of the LIF protein
